The subject of assay [1] is Mycobacterium tuberculosis. In words: Antimycobacterial activity against isoniazid-resistant Mycobacterium tuberculosis. Type of assay: functional.
In assay [2] the test system is Mycobacterium tuberculosis. Kind of assay: Antimycobacterial activity against rifampicin-resistant Mycobacterium tuberculosis. Type of assay: functional.

Converted amounts (≈) assume the structure as drawn.

As a reminder, the MIC is the smallest concentration in the dilution series that meets the test's criterion for growth inhibition. A lower MIC goes with greater potency.

`Cc1ccc(-c2cc(CN3CCSCC3)c(C)n2-c2ccc(Cl)cc2)cc1`: the figures for the MIC in assay [1] and in assay [2] were 16 µg/mL (≈ 40.3 µM) and 0.5 µg/mL (≈ 1.26 µM), respectively.

For `Cc1c(CN2CCSCC2)cc(-c2ccc(C(C)C)cc2)n1-c1ccc(Cl)cc1`, the minimum inhibitory concentration (MIC) stood at 8 µg/mL (≈ 18.8 µM) in assay [1] and 0.125 µg/mL (≈ 0.294 µM) in assay [2].

On to `CCCc1ccc(-n2c(-c3ccc(Cl)cc3)cc(CN3CCSCC3)c2C)cc1`, for which the values for the MIC in assay [1] and in assay [2] were more than 16 µg/mL and 0.25 µg/mL (≈ 0.588 µM), respectively.

Take `CO[C@H]1/C=C/O[C@@]2(C)Oc3c(C)c(O)c4c(O)c(c(/C=N/N5CCN(C)CC5)c(O)c4c3C2=O)NC(=O)/C(C)=C\C=C\[C@H](C)[C@H](O)[C@@H](C)[C@@H](O)[C@@H](C)[C@H](OC(C)=O)[C@@H]1C` [RIFAMPIN]: the MIC is 0.25 µg/mL (≈ 0.304 µM) in assay [1] and more than 64 µg/mL in assay [2].

With `Cc1ccc(-n2c(-c3ccc(Cl)cc3)cc(CN3CCSCC3)c2C)cc1`, the MIC in assay [1] is more than 16 µg/mL; in assay [2], 0.5 µg/mL (≈ 1.26 µM).

As for `Cc1ccc(-c2cc(CN3CCSCC3)c(C)n2-c2ccc(F)cc2)cc1`, the MIC turned out to be 32 µg/mL (≈ 84.1 µM) in assay [1] and 0.5 µg/mL (≈ 1.31 µM) in assay [2].

`Cc1c(CN2CCSCC2)cc(-c2ccc(Cl)cc2)n1-c1ccc(C(C)C)cc1`: the minimum inhibitory concentration (MIC) in assay [1] is more than 16 µg/mL; in assay [2] it was 0.25 µg/mL (≈ 0.588 µM).

In the case of `[H]/N=C(/N)N[C@H]1[C@H](O)[C@@H](O)[C@H](O[C@@H]2O[C@@H](C)[C@](O)(C=O)[C@H]2O[C@@H]2O[C@@H](CO)[C@H](O)[C@@H](O)[C@@H]2NC)[C@@H](N/C(N)=N\[H])[C@@H]1O` (stereo in doubt) [STREPTOMYCIN], the figures for the minimal inhibitory concentration (MIC) in assay [1] and in assay [2] were 16 µg/mL (≈ 27.5 µM) and 4 µg/mL (≈ 6.88 µM), respectively.

With `Cc1c(CN2CCN(C)CC2)cc(-c2ccc(Cl)cc2)n1-c1ccc(Cl)cc1`, the minimum inhibitory concentration (MIC) in assay [1] came to 2 µg/mL (≈ 4.83 µM); in assay [2] it was 1 µg/mL (≈ 2.41 µM).

In the case of `Cc1c(CN2CCSCC2)cc(-c2ccc(C(C)C)cc2)n1-c1ccc(F)cc1`, the MIC is more than 16 µg/mL in assay [1] and 0.25 µg/mL (≈ 0.612 µM) in assay [2].

With `CCc1ccc(-n2c(-c3ccc(Cl)cc3)cc(CN3CCSCC3)c2C)cc1`, the MIC in assay [1] was 16 µg/mL (≈ 38.9 µM); in assay [2] it was 0.5 µg/mL (≈ 1.22 µM).

Regarding `CCc1ccc(-c2cc(CN3CCSCC3)c(C)n2-c2ccc(Cl)cc2)cc1`, the MIC came to 16 µg/mL (≈ 38.9 µM) in assay [1] and 0.25 µg/mL (≈ 0.608 µM) in assay [2].

As to `NNC(=O)c1ccncc1` [ISONIAZID], the MIC in assay [1] was more than 16 µg/mL; in assay [2], 0.25 µg/mL (≈ 1.82 µM).

Regarding `CCCc1ccc(-c2cc(CN3CCSCC3)c(C)n2-c2ccc(Cl)cc2)cc1`, the results for the MIC in assay [1] and in assay [2] were more than 16 µg/mL and 0.125 µg/mL (≈ 0.294 µM), respectively.
